Source: patent publication US20230114728A1 (Venatorx Pharmaceuticals, Inc., priority 2019, published 2023)
Converted amounts (≈) assume the structure as drawn.

What was measured:
Assay in all cases: Broth microdilution MIC in CAMHB
Format in all cases: cell-based
[1] = system: A. baumannii ATCC 19606; conditions: Acinetobacter baumannii, ATCC19606; MHB; read-out: Minimum Inhibitory Concentration, A. baumannii ATCC 19606
Method: (§1) Example III: In Vitro Antibacterial Assays
(§2) To determine the ability of test compounds to inhibit the growth of bacterial strains, classic cell based broth microdilution minimum inhibitory concentration (MIC) assays were employed. MIC assays are performed according to CLSI methods except where otherwise noted (CLSI, 2018 and CLSI, 2019). The reference type strain E. coli ATCC 25922; the wild-type parent strain E. coli AG100; the hyper-permeable E. coli 901C and E. coli D22; and the E. coli AG100A strain lacking the acrAB efflux pump encoding genes were used to determine the ability of the PBP inhibitors to penetrate the outer membrane of gram-negative bacteria and inhibit bacterial growth. […] The P. aeruginosa ATCC 27853 and A. baumannii ATCC 19606, along with the hyper-permeable P. aeruginosa ATCC 35151 and an engineered efflux pump-compromised strain of P. aeruginosa (ΔmexAB-oprM) were used to determine the ability of PBP inhibitors to penetrate the outer membrane of P. aeruginosa and A. baumannii and assess antibacterial activity against these important gram-negative organisms.
(§3) Briefly, cryo-preserved bacterial cultures of challenge strains are streaked for isolation on appropriate agar medium, in this case cation-adjusted Mueller Hinton agar. Following incubation to allow growth of the colonies, plates are sealed with parafilm and stored refrigerated for up to two weeks. For preparation of assay inoculum and to ensure low variability, at least 5 colonies are picked from the agar plates with an inoculating loop and aseptically transferred to a culture tube containing 3 mL of cation-adjusted Mueller Hinton broth (CAMHB). The broth culture is grown for 3-5 hours at 37° C. with shaking at 200 rpm. Meanwhile, 2-fold serial dilutions of test compounds are conducted in a 96-well plate with a final volume of 75 μL per well at 2-fold the final desired concentration. After the dilution plates are set up the growing cultures are then diluted in a cuvette containing CAMHB and the optical density is measured at 600 nm. The inoculum is diluted such that 75 μL of this culture in CAMHB results in a starting bacterial concentration of 2-8×10^5 CFU/mL when added to the dilution plates. The plates are incubated for 16-20 hours for Enterobacteriaceae and Pseudomonas and 20-24 hours for Acinetobacter at 37° C. The MIC values are read visually as the lowest concentration well with no bacterial growth.

[2] = system: E. coli 901C; conditions: Escherichia coli; MHB; hyper-permeable E. coli 901C; read-out: Minimum Inhibitory Concentration, E. coli 901C
Method: as §1, §2, §3

[3] = system: E. coli AG100A; conditions: Escherichia coli, read-out: Minimum Inhibitory Concentration, E. coli AG100A
Method: as §1, §2, §3

[4] = system: E. coli AG100; conditions: Escherichia coli; MHB; wild-type parent strain E. coli AG100; read-out: Minimum Inhibitory Concentration, E. coli AG100
Method: as §1, §2, §3

[5] = system: E. coli ATCC 25922; conditions: Escherichia coli, ATCC25922; MHB; E. coli ATCC 25922; read-out: Minimum Inhibitory Concentration, E. coli 25922
Method: as §1, §2, §3

[6] = system: E. coli D22; conditions: Escherichia coli; MHB; hyper-permeable E. coli D22; read-out: Minimum Inhibitory Concentration, E. coli D22
Method: as §1, §2, §3

[7] = system: K. pneumoniae 848844 producing SHV-11 and KPC-2; conditions: Klebsiella pneumoniae, read-out: Minimum Inhibitory Concentration, K. pneumoniae 848844
Method: as §1, §2, §3

[8] = system: K. pneumoniae SI-117 producing VIM-1; conditions: Klebsiella pneumoniae, read-out: Minimum Inhibitory Concentration, K. pneumoniae SI-117
Method: as §1, §2, §3

[9] = system: K. pneumoniae UMM producing SHV-5 and KPC-2; conditions: Klebsiella pneumoniae, read-out: Minimum Inhibitory Concentration, K. pneumoniae UMM
Method: as §1, §2, §3

[10] = system: P. aeruginosa (ΔmexAB-oprM); conditions: Pseudomonas aeruginosa, read-out: Minimum Inhibitory Concentration, P. aeruginosa ΔmexAB-OprM
Method: as §1, §2, §3

[11] = system: P. aeruginosa ATCC 27853; conditions: Pseudomonas aeruginosa, ATCC27853; MHB; read-out: Minimum Inhibitory Concentration, P. aeruginosa ATCC 27853
Method: as §1, §2, §3

[12] = system: P. aeruginosa ATCC 35151; conditions: Pseudomonas aeruginosa, ATCC35151; MHB; hyper-permeable strain; read-out: Minimum Inhibitory Concentration, P. aeruginosa ATCC 35151
Method: as §1, §2, §3

| SMILES | MIC [1] | MIC [2] | MIC [3] | MIC [4] | MIC [5] | MIC [6] | MIC [7] | MIC [8] | MIC [9] | MIC [10] | MIC [11] | MIC [12] |
| --- | --- | --- | --- | --- | --- | --- | --- | --- | --- | --- | --- | --- |
| NCCN1CCN(C(=O)N[C@H](C(=O)N[C@H]2Cc3cccc(C(=O)O)c3OB2O)c2c(Cl)cccc2Cl)C(=O)C1=O (single isomer, unassigned) [Example 225] | > 128 µg/mL | > 128 µg/mL | > 128 µg/mL | > 128 µg/mL | > 128 µg/mL | > 128 µg/mL | > 128 µg/mL | > 128 µg/mL | 32 to 64 µg/mL (≈ 54 to 108 µM) | > 128 µg/mL | > 128 µg/mL | > 128 µg/mL |
| O=C(O)c1cccc2c1OB(O)[C@@H](NC(=O)C(NC(=O)N1CCN(CCBr)C(=O)C1=O)c1ccc(O)c(F)c1F)C2 (stereo partly drawn) [Example 249, (3R)-3-(2-(4-(2-bromoethyl)-2,3-dioxopiperazine-1-carboxamido)-2-(2,3-difluoro-4-hydroxyphenyl)acetamido)-2-hydroxy-3,4-dihydro-2H-benzo[e][1,2]oxaborinine-8-carboxylic acid] | > 128 µg/mL | > 128 µg/mL | 32 to 64 µg/mL (≈ 50.1 to 100 µM) | > 128 µg/mL | 32 to 64 µg/mL (≈ 50.1 to 100 µM) | 32 to 64 µg/mL (≈ 50.1 to 100 µM) | 32 to 64 µg/mL (≈ 50.1 to 100 µM) | 2 to 4 µg/mL (≈ 3.13 to 6.26 µM) | < 0.25 µg/mL | 8 to 16 µg/mL (≈ 12.5 to 25 µM) | > 128 µg/mL | 0.5 to 1 µg/mL (≈ 0.782 to 1.56 µM) |
| C[C@H]1CN(CCN)C(=O)C(=O)N1C(=O)N[C@@H](C(=O)N[C@H]1Cc2cccc(C(=O)O)c2OB1O)c1ccc(O)c(F)c1F [Example 242, (3R)-3-(2-((S)-4-(2-aminoethyl)-6-methyl-2,3-dioxopiperazine-1-carboxamido)-2-(2,3-difluoro-4-hydroxyphenyl)acetamido)-2-hydroxy-3,4-dihydro-2H-benzo[e][1,2]oxaborinine-8-carboxylic acid] | > 128 µg/mL | 32 to 64 µg/mL (≈ 54.3 to 109 µM) | 32 to 64 µg/mL (≈ 54.3 to 109 µM) | 32 to 64 µg/mL (≈ 54.3 to 109 µM) | 8 to 16 µg/mL (≈ 13.6 to 27.2 µM) | 8 to 16 µg/mL (≈ 13.6 to 27.2 µM) | 32 to 64 µg/mL (≈ 54.3 to 109 µM) | 2 to 4 µg/mL (≈ 3.39 to 6.79 µM) | 0.5 to 1 µg/mL (≈ 0.848 to 1.7 µM) | 8 to 16 µg/mL (≈ 13.6 to 27.2 µM) | > 128 µg/mL | 0.5 to 1 µg/mL (≈ 0.848 to 1.7 µM) |
| CCN1CCN(C(=O)NC(C(=O)N[C@H]2Cc3cccc(C(=O)O)c3OB2O)c2ccc(P(=O)(O)O)cc2)C(=O)C1=O (stereo partly drawn) [Example 250, (3R)-3-(2-(4-ethyl-2,3-dioxopiperazine-1-carboxamido)-2-(4-phosphonophenyl)acetamido)-2-hydroxy-3,4-dihydro-2H-benzo[e][1,2]oxaborinine-8-carboxylic acid] | 32 to 64 µg/mL (≈ 54.4 to 109 µM) | > 128 µg/mL | > 128 µg/mL | > 128 µg/mL | 32 to 64 µg/mL (≈ 54.4 to 109 µM) | 32 to 64 µg/mL (≈ 54.4 to 109 µM) | > 128 µg/mL | 2 to 4 µg/mL (≈ 3.4 to 6.8 µM) | < 0.25 µg/mL | 8 to 16 µg/mL (≈ 13.6 to 27.2 µM) | > 128 µg/mL | 2 to 4 µg/mL (≈ 3.4 to 6.8 µM) |
